# Experimental data from ChEMBL document CHEMBL4251595, “Green approach for the synthesis of thiophenyl pyrazoles and isoxazoles by adopting 1,3-dipolar cycloaddition methodology and their antimicrobial activity” (2018).
# Calls of active or inactive are those of the source. The rule behind the calls is not given here.
# Key:
# Format in all cases: functional
# Staphylococcus aureus [1] = test: Antimicrobial activity against Staphylococcus aureus assessed as zone of inhibition at 50 ug/well after 24 hrs by agar well diffusion method; conditions: for zone of inhibition at 50 µg/disc: read-out: DIZ
# Staphylococcus aureus [2] = test: Antimicrobial activity against Staphylococcus aureus assessed as zone of inhibition at 75 ug/well after 24 hrs by agar well diffusion method; conditions: for zone of inhibition at 75 µg/disc: read-out: DIZ
# Staphylococcus aureus [3] = test: Antimicrobial activity against Staphylococcus aureus assessed as zone of inhibition at 100 ug/well after 24 hrs by agar well diffusion method; conditions: for zone of inhibition at 100 µg/disc: read-out: DIZ
# Bacillus subtilis [4] = test: Antimicrobial activity against Bacillus subtilis assessed as zone of inhibition at 50 ug/well after 24 hrs by agar well diffusion method; conditions: for zone of inhibition at 50 µg/disc: read-out: DIZ
# Bacillus subtilis [5] = test: Antimicrobial activity against Bacillus subtilis assessed as zone of inhibition at 75 ug/well after 24 hrs by agar well diffusion method; conditions: for zone of inhibition at 75 µg/disc: read-out: DIZ
# Bacillus subtilis [6] = test: Antimicrobial activity against Bacillus subtilis assessed as zone of inhibition at 100 ug/well after 24 hrs by agar well diffusion method; conditions: for zone of inhibition at 100 µg/disc: read-out: DIZ
# Pseudomonas aeruginosa [7] = test: Antimicrobial activity against Pseudomonas aeruginosa assessed as zone of inhibition at 50 ug/well after 24 hrs by agar well diffusion method; conditions: for zone of inhibition at 50 µg/disc: read-out: DIZ
# Pseudomonas aeruginosa [8] = test: Antimicrobial activity against Pseudomonas aeruginosa assessed as zone of inhibition at 75 ug/well after 24 hrs by agar well diffusion method; conditions: for zone of inhibition at 75 µg/disc: read-out: DIZ
# Pseudomonas aeruginosa [9] = test: Antimicrobial activity against Pseudomonas aeruginosa assessed as zone of inhibition at 100 ug/well after 24 hrs by agar well diffusion method; conditions: for zone of inhibition at 100 µg/disc: read-out: DIZ
# Klebsiella pneumoniae [10] = test: Antimicrobial activity against Klebsiella pneumoniae assessed as zone of inhibition at 50 ug/well after 24 hrs by agar well diffusion method; conditions: for zone of inhibition at 50 µg/disc: read-out: DIZ
# Klebsiella pneumoniae [11] = test: Antimicrobial activity against Klebsiella pneumoniae assessed as zone of inhibition at 75 ug/well after 24 hrs by agar well diffusion method; conditions: for zone of inhibition at 75 µg/disc: read-out: DIZ
# Klebsiella pneumoniae [12] = test: Antimicrobial activity against Klebsiella pneumoniae assessed as zone of inhibition at 100 ug/well after 24 hrs by agar well diffusion method; conditions: for zone of inhibition at 100 µg/disc: read-out: DIZ
# Staphylococcus aureus [13] = test: Antimicrobial activity against Staphylococcus aureus after 24 hrs by broth dilution test
# Bacillus subtilis [14] = test: Antimicrobial activity against Bacillus subtilis after 24 hrs by broth dilution test
# Pseudomonas aeruginosa [15] = test: Antimicrobial activity against Pseudomonas aeruginosa after 24 hrs by broth dilution test
# Klebsiella pneumoniae [16] = test: Antimicrobial activity against Klebsiella pneumoniae after 24 hrs by broth dilution test
# Aspergillus niger [17] = test: Antifungal activity against Aspergillus niger assessed as zone of inhibition at 50 ug/well after 48 hrs by agar well diffusion method; conditions: for zone of inhibition at 50 µg/disc: read-out: DIZ
# Aspergillus niger [18] = test: Antifungal activity against Aspergillus niger assessed as zone of inhibition at 75 ug/well after 48 hrs by agar well diffusion method; conditions: read-out: DIZ
# Aspergillus niger [19] = test: Antifungal activity against Aspergillus niger assessed as zone of inhibition at 100 ug/well after 48 hrs by agar well diffusion method; conditions: read-out: DIZ
# Penicillium chrysogenum [20] = test: Antifungal activity against Penicillium chrysogenum assessed as zone of inhibition at 50 ug/well after 48 hrs by agar well diffusion method; conditions: for zone of inhibition at 50 µg/disc: read-out: DIZ
# Penicillium chrysogenum [21] = test: Antifungal activity against Penicillium chrysogenum assessed as zone of inhibition at 75 ug/well after 48 hrs by agar well diffusion method; conditions: for zone of inhibition at 75 µg/disc: read-out: DIZ
# Penicillium chrysogenum [22] = test: Antifungal activity against Penicillium chrysogenum assessed as zone of inhibition at 100 ug/well after 48 hrs by agar well diffusion method; conditions: for zone of inhibition at 100 µg/disc: read-out: DIZ
# Aspergillus niger [23] = test: Antifungal activity against Aspergillus niger after 48 hrs by broth dilution test
# Penicillium chrysogenum [24] = test: Antifungal activity against Penicillium chrysogenum after 48 hrs by broth dilution test
# Staphylococcus aureus [25] = test: Bactericidal activity against Staphylococcus aureus incubated for 24 hrs followed by replating on sterile nutrient broth and incubated for 24 hrs by broth dilution test
# Bacillus subtilis [26] = test: Bactericidal activity against Bacillus subtilis incubated for 24 hrs followed by replating on sterile nutrient broth and incubated for 24 hrs by broth dilution test
# Pseudomonas aeruginosa [27] = test: Bactericidal activity against Pseudomonas aeruginosa incubated for 24 hrs followed by replating on sterile nutrient broth and incubated for 24 hrs by broth dilution test
# Klebsiella pneumoniae [28] = test: Bactericidal activity against Klebsiella pneumoniae incubated for 24 hrs followed by replating on sterile nutrient broth and incubated for 24 hrs by broth dilution test
# Aspergillus niger [29] = test: Fungicidal activity against Aspergillus niger incubated for 48 hrs followed by replating on PDA and incubated for 48 hrs by broth dilution test
# Penicillium chrysogenum [30] = test: Fungicidal activity against Penicillium chrysogenum incubated for 48 hrs followed by replating on PDA and incubated for 48 hrs by broth dilution test
MIC (Staphylococcus aureus [13]) [µg/mL],MIC (Bacillus subtilis [14]) [µg/mL],MIC (Pseudomonas aeruginosa [15]) [µg/mL],MIC (Klebsiella pneumoniae [16]) [µg/mL],SMILES,zone of inhibition at 50 µg/disc (Staphylococcus aureus [1]) [mm],zone of inhibition at 75 µg/disc (Staphylococcus aureus [2]) [mm],zone of inhibition at 100 µg/disc (Staphylococcus aureus [3]) [mm],zone of inhibition at 50 µg/disc (Bacillus subtilis [4]) [mm],zone of inhibition at 75 µg/disc (Bacillus subtilis [5]) [mm],zone of inhibition at 100 µg/disc (Bacillus subtilis [6]) [mm],zone of inhibition at 50 µg/disc (Pseudomonas aeruginosa [7]) [mm],zone of inhibition at 75 µg/disc (Pseudomonas aeruginosa [8]) [mm],zone of inhibition at 100 µg/disc (Pseudomonas aeruginosa [9]) [mm],zone of inhibition at 50 µg/disc (Klebsiella pneumoniae [10]) [mm],zone of inhibition at 75 µg/disc (Klebsiella pneumoniae [11]) [mm],zone of inhibition at 100 µg/disc (Klebsiella pneumoniae [12]) [mm],zone of inhibition at 50 µg/disc (Aspergillus niger [17]) [mm],zone of inhibition at 75 µg/disc (Aspergillus niger [18]) [mm],zone of inhibition at 100 µg/disc (Aspergillus niger [19]) [mm],zone of inhibition at 100 µg/disc (Penicillium chrysogenum [22]) [mm],further results
50,6.25,12.5,25,O=C(NS(=O)(=O)c1c(-c2ccccc2)noc1-c1ccc([N+](=O)[O-])cc1)c1ccc(Cl)s1,27,30,32,37,39,44,23,25,28,32,35,38,35,37,40,33,zone of inhibition at 50 µg/disc (Penicillium chrysogenum [20]): 27 mm; zone of inhibition at 75 µg/disc (Penicillium chrysogenum [21]): 29 mm; MIC (Aspergillus niger [23]): 6.25 µg/mL; MIC (Penicillium chrysogenum [24]): 50 µg/mL; MBC (Staphylococcus aureus [25]): 200 µg/mL; MBC (Bacillus subtilis [26]): 12.5 µg/mL; MBC (Pseudomonas aeruginosa [27]): 50 µg/mL; MBC (Klebsiella pneumoniae [28]): 100 µg/mL; MFC (Aspergillus niger [29]): 12.5 µg/mL; MFC (Penicillium chrysogenum [30]): 200 µg/mL
50,6.25,25,25,O=C(NS(=O)(=O)/C=C/c1ccc([N+](=O)[O-])cc1)c1ccc(Cl)s1,21,24,26,31,34,38,19,21,24,27,29,33,27,29,31,28,zone of inhibition at 50 µg/disc (Penicillium chrysogenum [20]): 24 mm; zone of inhibition at 75 µg/disc (Penicillium chrysogenum [21]): 26 mm; MIC (Aspergillus niger [23]): 25 µg/mL; MIC (Penicillium chrysogenum [24]): 100 µg/mL; MBC (Staphylococcus aureus [25]): 200 µg/mL; MBC (Bacillus subtilis [26]): 12.5 µg/mL; MBC (Pseudomonas aeruginosa [27]): 100 µg/mL; MBC (Klebsiella pneumoniae [28]): 100 µg/mL; MFC (Aspergillus niger [29]): 100 µg/mL; MFC (Penicillium chrysogenum [30]): > 200 µg/mL
–,–,–,–,Cc1ccc(C2C(S(=O)(=O)NC(=O)c3cccs3)C(c3ccccc3)=NN2c2ccccc2)cc1 (configuration not stated),–,–,–,–,–,–,–,–,–,–,–,–,–,8,10,–,diameter of the inhibition zone (DIZ) (Staphylococcus aureus [1]): inactive; diameter of the inhibition zone (DIZ) (Staphylococcus aureus [2]): inactive; diameter of the inhibition zone (DIZ) (Staphylococcus aureus [3]): inactive; diameter of the inhibition zone (DIZ) (Bacillus subtilis [4]): inactive; diameter of the inhibition zone (DIZ) (Bacillus subtilis [5]): inactive; diameter of the inhibition zone (DIZ) (Bacillus subtilis [6]): inactive; diameter of the inhibition zone (DIZ) (Pseudomonas aeruginosa [7]): inactive; diameter of the inhibition zone (DIZ) (Pseudomonas aeruginosa [8]): inactive; diameter of the inhibition zone (DIZ) (Pseudomonas aeruginosa [9]): inactive; diameter of the inhibition zone (DIZ) (Klebsiella pneumoniae [10]): inactive; diameter of the inhibition zone (DIZ) (Klebsiella pneumoniae [11]): inactive; diameter of the inhibition zone (DIZ) (Klebsiella pneumoniae [12]): inactive; diameter of the inhibition zone (DIZ) (Aspergillus niger [17]): inactive; diameter of the inhibition zone (DIZ) (Penicillium chrysogenum [20]): inactive; diameter of the inhibition zone (DIZ) (Penicillium chrysogenum [21]): inactive; diameter of the inhibition zone (DIZ) (Penicillium chrysogenum [22]): inactive
–,–,–,–,O=C(NS(=O)(=O)C1C(c2ccccc2)=NN(c2ccccc2)C1c1ccccc1)c1ccc(Cl)s1 (configuration not stated),–,–,–,8,11,15,–,–,–,–,–,11,8,11,13,9,diameter of the inhibition zone (DIZ) (Staphylococcus aureus [1]): inactive; diameter of the inhibition zone (DIZ) (Staphylococcus aureus [2]): inactive; diameter of the inhibition zone (DIZ) (Staphylococcus aureus [3]): inactive; diameter of the inhibition zone (DIZ) (Pseudomonas aeruginosa [7]): inactive; diameter of the inhibition zone (DIZ) (Pseudomonas aeruginosa [8]): inactive; diameter of the inhibition zone (DIZ) (Pseudomonas aeruginosa [9]): inactive; diameter of the inhibition zone (DIZ) (Klebsiella pneumoniae [10]): inactive; diameter of the inhibition zone (DIZ) (Klebsiella pneumoniae [11]): inactive; diameter of the inhibition zone (DIZ) (Penicillium chrysogenum [20]): inactive; diameter of the inhibition zone (DIZ) (Penicillium chrysogenum [21]): inactive

SMILES,MIC (Staphylococcus aureus [13]) [µg/mL],MIC (Bacillus subtilis [14]) [µg/mL],MIC (Pseudomonas aeruginosa [15]) [µg/mL],MIC (Klebsiella pneumoniae [16]) [µg/mL],zone of inhibition at 50 µg/disc (Staphylococcus aureus [1]) [mm],zone of inhibition at 75 µg/disc (Staphylococcus aureus [2]) [mm],zone of inhibition at 100 µg/disc (Staphylococcus aureus [3]) [mm],zone of inhibition at 50 µg/disc (Bacillus subtilis [4]) [mm],zone of inhibition at 75 µg/disc (Bacillus subtilis [5]) [mm],zone of inhibition at 100 µg/disc (Bacillus subtilis [6]) [mm],zone of inhibition at 50 µg/disc (Pseudomonas aeruginosa [7]) [mm],zone of inhibition at 75 µg/disc (Pseudomonas aeruginosa [8]) [mm],zone of inhibition at 100 µg/disc (Pseudomonas aeruginosa [9]) [mm],zone of inhibition at 50 µg/disc (Klebsiella pneumoniae [10]) [mm],zone of inhibition at 75 µg/disc (Klebsiella pneumoniae [11]) [mm],zone of inhibition at 100 µg/disc (Klebsiella pneumoniae [12]) [mm],zone of inhibition at 50 µg/disc (Aspergillus niger [17]) [mm],zone of inhibition at 75 µg/disc (Aspergillus niger [18]) [mm],zone of inhibition at 100 µg/disc (Aspergillus niger [19]) [mm],zone of inhibition at 100 µg/disc (Penicillium chrysogenum [22]) [mm],further results
O=C(N[C@H](CO)[C@H](O)c1ccc([N+](=O)[O-])cc1)C(Cl)Cl [CHLORAMPHENICOL],12.5,6.25,6.25,6.25,30,33,35,32,34,38,25,27,30,38,40,42,–,–,–,–,–
